# According to ChEMBL document CHEMBL1144653, “The thioesterase domain from the pimaricin and erythromycin biosynthetic pathways can catalyze hydrolysis of simple thioester substrates” (Bioorg Med Chem Lett, 2007):
# Test system: Saccharopolyspora erythraea
# Assay: Ratio of Kcat to Km in 6-deoxyerythronolide B polyketide synthase thioesterase expressed in Escherichia coli
row,kcat/Km [M⁻¹ s⁻¹],SMILES
1,3.6,CC[C@H](O)[C@@H](C)C(=O)SCCNC(C)=O
2,4.2,CCC(=O)C(C)C(=O)SCCNC(C)=O (stereo not drawn)
3,0.47,CC[C@@H](O)[C@H](C)C(=O)SCCNC(C)=O
4,0.17,CCCC(C)C(=O)SCCNC(C)=O (stereo not drawn)

# Test system: Streptomyces natalensis
# Assay: Ratio of Kcat to Km in pimaricin thioesterase expressed in Escherichia coli
row,SMILES,kcat/Km [M⁻¹ s⁻¹]
1,CC[C@H](O)[C@@H](C)C(=O)SCCNC(C)=O,0.02
2,CC[C@@H](O)[C@H](C)C(=O)SCCNC(C)=O,0.04

# Now from value to compound:
row,kcat/Km [M⁻¹ s⁻¹],SMILES
1,1.3,CC/C=C(\C)C(=O)SCCNC(C)=O
2,0.24,CCCC(C)C(=O)SCCNC(C)=O (stereo not drawn)
